Test results reported in patent publication US9062024B2, “Nitrogen-containing heterocyclic compound and salt thereof, and a fungicide for agricultural and horticultural use” (Nippon Soda Co., Ltd., priority 2009, dated 2015).

| melting point [°C] | SMILES |
| --- | --- |
| 201 to 202 | c1ccc2c(c1)NCCN=C2c1cnc2ccccc2c1 |
| 187 to 189 | CC(=O)N1CCN=C(c2cnc3ccccc3c2)c2ccccc21 |
| 115 to 116 | CC1(C)CN=C(c2cnc3ccccc3c2)c2ccccc2C1 [Compound B2-3, 4,4-dimethyl-1-(3-quinolinyl)-4,5-dihydro-3H-2-benzazepine] |
| 121 to 123 | CC1(C)CCN=C(c2cnc3ccccc3c2)c2ccccc21 [Compound B2-25, 5,5-dimethyl-1-(3-quinolinyl)-4,5-dihydro-3H-2-benzazepine] |
